Measurements from paper PMC6433232, “Targeting mitochondria in cancer therapy could provide a basis for the selective anti-cancer activity” (PLoS ONE, 2019).
Like-named read-outs stand apart in the source and are kept apart here.

Test system: primary acute myeloid leukemia (AML) cells obtained from patients
Test: Kinase inhibitor library screening with and without NSC130362, primary AML cells
Format: cell-based, Human
[1] = ratio of EC50 for inhibitor to EC50 for inhibitor/NSC130362 combination, NSC130362 10 μM, Screen N 1
[2] = ratio of EC50 for inhibitor to EC50 for inhibitor/NSC130362 combination, NSC130362 10 μM, Screen N 2
[3] = ratio of EC50 for inhibitor to EC50 for inhibitor/NSC130362 combination, NSC130362 10 μM, Screen N 3

EC50 decrease, fold (Screen N 1) [1] | EC50 decrease, fold (Screen N 2) [2] | EC50 decrease, fold (Screen N 3) [3] | Molecule | EC50 decrease, fold (Screen N 1) | EC50 decrease, fold (Screen N 2) | EC50 decrease, fold (Screen N 3)
506.3 fold | 1.0 fold | 356.4 fold | CC[C@H](Nc1ncnc2[nH]cnc12)c1nc2cccc(F)c2c(=O)n1-c1ccccc1 [GS-1101 (CAL-101)] | – | – | –
– | 2.8 fold | – | Cc1nc(-c2cn3c(n2)-c2ccc(-c4cnn(C(C)(C)C(N)=O)c4)cc2OCC3)n(C(C)C)n1 [Taselisib (GDC-0032)] | – | – | –
– | 1.0 fold | 1.0 fold | Cc1cn(-c2cc(NC(=O)c3ccc(C)c(Nc4nccc(-c5cccnc5)n4)c3)cc(C(F)(F)F)c2)cn1 [Nilotinib] | – | – | –
0.6 fold | 1.0 fold | 1.0 fold | COc1cc(Oc2ccnc3cc(OC)c(OC)cc23)ccc1NC(=O)NC(C)c1nccs1 (stereo not drawn) [KI20227] | – | – | –
8.3 fold | 1.0 fold | 0.00538 fold | COc1cc2c(Oc3ccc4[nH]c(C)cc4c3F)ncnc2cc1OCCCN1CCCC1 [Cediranib (AZD2171)] | – | – | –
– | 1.0 fold | – | COc1ccc(COc2ccc(Cc3cnc(N)nc3N)cc2OC)cc1 [GW-2580] | – | – | –
– | 1.0 fold | – | CO[C@H]1C[C@@H]2CC[C@@H](C)[C@@](O)(O2)C(=O)C(=O)N2CCCC[C@H]2C(=O)O[C@H]([C@H](C)C[C@@H]2CC[C@@H](O)[C@H](OC)C2)CC(=O)[C@H](C)/C=C(\C)[C@@H](O)[C@@H](OC)C(=O)[C@H](C)C[C@H](C)/C=C/C=C/C=C/1C [Rapamycin] | – | – | –
– | 1.0 fold | – | COc1cc(C(=O)O)ccc1NC(=O)[C@@H]1N[C@@H](CC(C)(C)C)[C@](C#N)(c2ccc(Cl)cc2F)[C@H]1c1cccc(Cl)c1F [Idesanutlin] | – | – | –
– | 0.8 fold | – | Cc1sc2c(c1C)C(c1ccc(Cl)cc1)=N[C@@H](CC(=O)Nc1ccc(O)cc1)c1nnc(C)n1-2 [OTX-015] | – | – | –
1.0 fold | 1.0 fold | 1058.2 fold | NC(=O)c1ccc(-c2nc(-c3ccc4c(c3)OCO4)c(-c3ccccn3)[nH]2)cc1 [SB-431542] | – | – | –
0.951 fold | 1.0 fold | 0.374 fold | C[C@H](NC(=O)Cc1cc(F)cc(F)c1)C(=O)N[C@@H]1C(=O)N(C)c2ccccc2-c2ccccc21 [DBZ] | – | – | –
1.4 fold | 0.843 fold | 46.0 fold | CCOc1cc2ncc(C#N)c(Nc3ccc(F)c(Cl)c3)c2cc1NC(=O)/C=C/CN(C)C [Pelitinib (EKB-569)] | – | – | –
– | 1.0 fold | – | COc1cc(OC)c(/C=C/S(=O)(=O)Cc2ccc(OC)c(NCC(=O)O)c2)c(OC)c1 [ON-01910] | – | – | –
1.4 fold | 398.5 fold | 183.2 fold | CC(=O)Nc1cccc(-n2c(=O)n(C3CC3)c(=O)c3c(Nc4ccc(I)cc4F)n(C)c(=O)c(C)c32)c1 [Trametinib (GSK1120212)] | – | – | –
– | – | – | CC(C)C[C@H](NC(=O)[C@H](Cc1ccccc1)NC(=O)c1cnccn1)B(O)O [Velcade] | 0.457 fold | 0.468 fold | 0.0645 fold
0.55 fold | 1.0 fold | 0.755 fold | COc1cc(N2CCC(N3CCN(C)CC3)CC2)ccc1Nc1ncc(Cl)c(Nc2ccccc2S(=O)(=O)C(C)C)n1 [NVP-TAE684] | – | – | –
– | 1.0 fold | – | Cc1cc(-c2ncc(CC(=O)Nc3ccc(-c4cnccn4)cn3)cc2C)ccn1 [LGK974] | – | – | –
0.9 fold | 1.0 fold | 952.6 fold | OCCn1cc(-c2ccc3c(c2)CC/C3=N\O)c(-c2ccncc2)n1 [GDC-0879] | – | – | –
1.0 fold | 1.0 fold | 1.0 fold | CC1(C)CNc2cc(NC(=O)c3cccnc3NCc3ccncc3)ccc21 [Motesanib (AMG-706)] | – | – | –
69.0 fold | 1.0 fold | 221.9 fold | CC(C)(C)c1ccc(S(=O)(=O)/C=C/C#N)cc1 [Bay 11-7085] | – | – | –
– | 1.0 fold | – | CC(C)(C)c1cc(NC(=O)Nc2ccc(-c3cn4c(n3)sc3cc(OCCN5CCOCC5)ccc34)cc2)no1 [Quizartinib (AC220)] | – | – | –
41.6 fold | 1.0 fold | 44.8 fold | CCc1cc(Nc2nccc(-c3c(-c4ccc(OC)c(C(=O)Nc5c(F)cccc5F)c4)nc4ccccn34)n2)c(OC)cc1N1CCC(N2CCN(S(C)(=O)=O)CC2)CC1 [GSK-1904529A] | – | – | –

EC50 decrease, fold (Screen N 1) [1] | EC50 decrease, fold (Screen N 2) [2] | EC50 decrease, fold (Screen N 3) [3] | Molecule | EC50 decrease, fold (Screen N 1) | EC50 decrease, fold (Screen N 2) | EC50 decrease, fold (Screen N 3)
7.5 fold | 1.0 fold | 0.9 fold | Cc1cc(Nc2cc(N3CCN(C)CC3)nc(Sc3ccc(NC(=O)C4CC4)cc3)n2)n[nH]1 [Tozasertib (VX-680)] | – | – | –
0.666 fold | 1.0 fold | 2.2 fold | COc1cc2c(Oc3ccc(NC(=O)C4(C(=O)Nc5ccc(F)cc5)CC4)cc3F)ccnc2cc1OCCCN1CCOCC1 [Foretinib (XL880)] | – | – | –
1.6 fold | 1.0 fold | 1.8 fold | CC(=O)c1c(C)c2cnc(Nc3ccc(N4CCNCC4)cn3)nc2n(C2CCCC2)c1=O [Palbociclib] | – | – | –
– | 1.0 fold | – | Cn1nccc1Nc1nccc(-c2ccn([C@H](CO)c3ccc(Cl)c(F)c3)c(=O)c2)n1 [GDC-0994] | – | – | –
1.0 fold | 1.0 fold | 17.0 fold | O=C(Nc1cccc(C(F)(F)F)c1)Nc1cc(S(=O)(=O)NC2CC2)ccc1-c1ccsc1 [AGI-6780] | – | – | –
– | 1.0 fold | – | Nc1ncnc2c1nc(Cl)n2[C@@H]1O[C@H](CO)[C@@H](O)[C@H]1O [8-cl-Adenosine] | – | – | –
– | 1.0 fold | – | CS(=O)(=O)CCNCc1ccc(-c2ccc3ncnc(Nc4ccc(OCc5cccc(F)c5)c(Cl)c4)c3c2)o1 [Lapatinib] | – | – | –
7.4 fold | 1.0 fold | 9.4 fold | CC1(C)CCC(CN2CCN(c3ccc(C(=O)NS(=O)(=O)c4ccc(NCC5CCOCC5)c([N+](=O)[O-])c4)c(Oc4cnc5[nH]ccc5c4)c3)CC2)=C(c2ccc(Cl)cc2)C1 [ABT-199 (BH3 mimetic)] | – | – | –
11.9 fold | 1.0 fold | 0.000745 fold | Cc1[nH]c(/C=C2\C(=O)Nc3ccc(S(=O)(=O)N(C)c4cccc(Cl)c4)cc32)c(C)c1C(=O)N1CCN(C)CC1 [SU11274] | – | – | –
3.7 fold | 1.0 fold | 0.182 fold | Nc1nc(Nc2ccc(S(N)(=O)=O)cc2)nn1C(=O)c1c(F)cccc1F [JNJ-7706621] | – | – | –
2.6 fold | 1.0 fold | 96.7 fold | CN1CCN(c2ccc3nc(-c4c(N)c5c(F)cccc5[nH]c4=O)[nH]c3c2)CC1 [Dovitinib (CHIR-258)] | – | – | –
1.6 fold | 1.0 fold | 0.9 fold | O=C(c1ccc(/C=C/c2n[nH]c3ccccc23)cc1)N1CCNCC1 [KW-2449] | – | – | –
3.3 fold | 1.0 fold | 1.1 fold | CN(C)C[C@@H]1CCn2cc(c3ccccc32)C2=C(C(=O)NC2=O)c2cn(c3ccccc23)CCO1 [LY-333531] | – | – | –
9.3 fold | 1.2 fold | 0.0014 fold | Cc1[nH]c2ccccc2c1CCNCc1ccc(/C=C/C(=O)NO)cc1 [Panobinostat] | – | – | –
1.4 fold | 1.0 fold | 0.000816 fold | O=C(O)c1ccc2c3c1cccc3c(=O)n1c3ccccc3nc21 [STO609] | – | – | –
1.1 fold | 1.0 fold | 266.4 fold | Nc1ncn([C@@H]2O[C@H](CO)[C@@H](O)[C@H]2O)c(=O)n1 [Azacytidine] | – | – | –
6.2 fold | 1.0 fold | 121.2 fold | COc1c(Cl)cc2c([nH]c3cnccc32)c1NC(=O)c1cccnc1C [MLN120B] | – | – | –
– | 1.0 fold | – | Cc1[nH]c2ccc(F)cc2c1-c1nc2c3cccnc3c3ncccc3c2[nH]1 [APTO-253] | – | – | –
– | – | – | Cc1ccc(NC(=O)c2ccc(CN3CCN(C)CC3)cc2)cc1Nc1nc(-c2cccnc2)cs1 [Masitinib (AB-1010)] | 0.174 fold | 1.0 fold | 3.7 fold
0.117 fold | 1.0 fold | 320.1 fold | N#CCNC(=O)c1ccc(-c2ccnc(Nc3ccc(N4CCOCC4)cc3)n2)cc1 [CYT387] | – | – | –
– | 1.0 fold | – | CCN(CC)CCNC(=O)c1c(C)[nH]c(/C=C2\C(=O)Nc3ccc(F)cc32)c1C [Sunitinib] | – | – | –
10.9 fold | 4.4 fold | 1.0 fold | COCCn1c2c([n+](Cc3cnccn3)c1C)C(=O)c1ccccc1C2=O [YM-155] | – | – | –

Molecule | EC50 decrease, fold (Screen N 1) [1] | EC50 decrease, fold (Screen N 2) [2] | EC50 decrease, fold (Screen N 3) [3] | EC50 decrease, fold (Screen N 1) | EC50 decrease, fold (Screen N 2) | EC50 decrease, fold (Screen N 3)
JAK Inhibitor I | 0.847 fold | 1.0 fold | 46.2 fold | – | – | –
Cc1[nH]nc2ccc(-c3cncc(OC[C@@H](N)Cc4ccccc4)c3)cc12 [A-674563] | 3.1 fold | 1.2 fold | 6.2 fold | – | – | –
